Assay results from patent publication US20240132484A1, “BROAD SPECTRUM ANTIVIRAL COMPOUNDS TARGETING THE SKI COMPLEX” (priority 2020, published 2024).
Where “and” joins values, the source holds several entries; their conditions need not be identical. Identical values can stand only once. Like-named read-outs stand apart in the source and are kept apart here.

Assays:
SARS2 = format: cell-based, SARS-CoV-2; conditions: for Percentage Inhibition Average 1 μM / Screening data (Relative infection to DMSO controls) Average 1 μM: SARS2, 1 μM; for Screening data (Relative infection to DMSO controls) Average 1 μM / Screening data (Relative infection to DMSO controls) Average 5 μM / Screening data (Relative infection to DMSO controls) Average 10 μM / Screening data (Relative infection to DMSO controls) Average 25 μM / Screening data (Relative infection to DMSO controls) Average 50 μM / Average (relative infection to DMSO over the 5 tested concentrations): 100=DMSO control; for Percentage Inhibition Average 5 μM / Screening data (Relative infection to DMSO controls) Average 5 μM: SARS2, 5 μM; for Percentage Inhibition Average 10 μM / Screening data (Relative infection to DMSO controls) Average 10 μM: SARS2, 10 μM; for Percentage Inhibition Average 25 μM / Screening data (Relative infection to DMSO controls) Average 25 μM: SARS2, 25 μM; for Percentage Inhibition Average 50 μM / Screening data (Relative infection to DMSO controls) Average 50 μM: SARS2, 50 μM; for Average (relative infection to DMSO over the 5 tested concentrations): SARS2, average over 1 to 50 uM; for Percentage Infection Relative to Appropriate DMSO Control with Avg Background Subtraction: single well
cells (nuclei count) = conditions: for Relative cell count to DMSO controls, Average 1 μM / Relative cell count to DMSO controls, Average 5 μM / Relative cell count to DMSO controls, Average 10 μM / Relative cell count to DMSO controls, Average 25 μM / Relative cell count to DMSO controls, Average 50 μM: toxicity data, 100=DMSO control; for Relative cell count to DMSO controls, Average (for correlation analysis): average value over the 5 tested concentrations (1 to 50 uM)

Structure (SMILES) | Percentage Inhibition Average 1 μM (SARS2) [%] | Screening data (Relative infection to DMSO controls) Average 1 μM (SARS2) | Percentage Inhibition Average 5 μM (SARS2) [%] | Screening data (Relative infection to DMSO controls) Average 5 μM (SARS2) | Percentage Inhibition Average 10 μM (SARS2) [%] | Screening data (Relative infection to DMSO controls) Average 10 μM (SARS2) | Percentage Inhibition Average 25 μM (SARS2) [%] | Screening data (Relative infection to DMSO controls) Average 25 μM (SARS2) | Percentage Inhibition Average 50 μM (SARS2) [%] | Screening data (Relative infection to DMSO controls) Average 50 μM (SARS2) | Average (relative infection to DMSO over the 5 tested concentrations) (SARS2) | Relative cell count to DMSO controls, Average 1 μM (cells (nuclei count)) | Relative cell count to DMSO controls, Average 5 μM (cells (nuclei count)) | Relative cell count to DMSO controls, Average 10 μM (cells (nuclei count)) | Relative cell count to DMSO controls, Average 25 μM (cells (nuclei count)) | Relative cell count to DMSO controls, Average 50 μM (cells (nuclei count)) | Relative cell count to DMSO controls, Average (for correlation analysis) (cells (nuclei count)) | further results
CN(C)CCN(Cc1ccsc1)Cc1ccc(CO)o1 [SILCS9] | −13.21 | 113.21 | −20.66 | 120.66 | −20.58 | 120.58 | −11.45 | 111.45 | 4.02 | 95.98 | 112.38 | 105.37 | 103.56 | 111.19 | 92.21 | 60.67 | 94.60 | Percentage Infection Relative to DMSO Control, Average, Mean (SARS2): 95.98% and 111.45% and 120.58% and 120.66% and 113.21%; SARS2 antiviral activity (SARS2): significant loss of activity; Toxicity Data, Average, Mean (relative to DMSO control) (cells (nuclei count); Average of Exp 1-3, 1 uM): 105.37%; Toxicity Data, Average, Mean (relative to DMSO control) (cells (nuclei count); Average of Exp 1-3, 5 uM): 103.56%; Toxicity Data, Average, Mean (relative to DMSO control) (cells (nuclei count); Average of Exp 1-3, 10 uM): 111.19%; Toxicity Data, Average, Mean (relative to DMSO control) (cells (nuclei count); Average of Exp 1-3, 25 uM): 92.21%; Toxicity Data, Average, Mean (relative to DMSO control) (cells (nuclei count); Average of Exp 1-3, 50 uM): 60.67%
CCN(CC)CCN(Cc1ccc(C)o1)Cc1cccs1 [SILCS24] | 31.47 | 68.53 | 28.46 | 71.54 | 29.04 | 70.96 | 64.96 | 35.04 | 80.74 | 19.26 | 53.07 | 133.02 | 124 | 120.3 | 96.21 | 76.48 | 110.00 | Infection Data, Average, Mean (SARS2; Average of Exp 1-3, n 9, 1 uM): 68.53%; Infection Data, Average, Mean (SARS2; Average of Exp 1-3, n 9, 5 uM): 71.54%; Infection Data, Average, Mean (SARS2; Average of Exp 1-3, n 9, 10 uM): 70.96%; Infection Data, Average, Mean (SARS2; Average of Exp 1-3, n 9, 25 uM): 35.04%; Infection Data, Average, Mean (SARS2; Average of Exp 1-3, n 9, 50 uM): 19.26%; Percentage Infection Relative to Appropriate DMSO Control with Avg Background Subtraction (SARS2; Exp 1 (SMW475), 1 uM): 124.65% and 102.70% and 66.42%; Percentage Infection Relative to Appropriate DMSO Control with Avg Background Subtraction (SARS2; Exp 1 (SMW475), 5 uM): 90.16% and 99.17% and 50.26%; Percentage Infection Relative to Appropriate DMSO Control with Avg Background Subtraction (SARS2; Exp 1 (SMW475), 10 uM): 93.85% and 91.06% and 50.31%; Percentage Infection Relative to Appropriate DMSO Control with Avg Background Subtraction (SARS2; Exp 1 (SMW475), 50 uM): 20.92% and 16.99% and 16.36%; Percentage Infection Relative to Appropriate DMSO Control with Avg Background Subtraction (SARS2; Exp 2 (SMW477), 1 uM): 88.56% and 86.90% and 93.54%; Percentage Infection Relative to Appropriate DMSO Control with Avg Background Subtraction (SARS2; Exp 2 (SMW477), 5 uM): 78.38% and 98.62% and 72.17%; Percentage Infection Relative to Appropriate DMSO Control with Avg Background Subtraction (SARS2; Exp 2 (SMW477), 10 uM): 54.07% and 57.64% and 38.68%; Percentage Infection Relative to Appropriate DMSO Control with Avg Background Subtraction (SARS2; Exp 2 (SMW477), 50 uM): 18.59% and 11.16% and 9.24%; Percentage Infection Relative to Appropriate DMSO Control with Avg Background Subtraction (SARS2; Exp 3 (SMW478), 10 uM): 97.16% and 81.93% and 73.95%; Toxicity Data, Average, Mean (cells (nuclei count); Average of Exp 1-3, n 9, 1 uM): 133.02%; Toxicity Data, Average, Mean (cells (nuclei count); Average of Exp 1-3, n 9, 5 uM): 124.00%; Toxicity Data, Average, Mean (cells (nuclei count); Average of Exp 1-3, n 9, 10 uM): 120.30%; Toxicity Data, Average, Mean (cells (nuclei count); Average of Exp 1-3, n 9, 25 uM): 96.21%; Toxicity Data, Average, Mean (cells (nuclei count); Average of Exp 1-3, n 9, 50 uM): 76.48%
